US20260144798A1, “Disruption of Vascular Smooth Muscle Relaxation by Carfilzomib May be the Primary Reason for CFZ-Induced Vascular Dysfunction” (AMGEN INC., priority 2019, published 2026)
pEC50: −log10 of the molar value. Like-named read-outs stand apart in the source and are kept apart here.

How the values were obtained:
rat aortic rings [1] = assay: Acetylcholine-induced relaxation of phenylephrine-precontracted rat aortic rings; settings: for EC50 for ACh-induced relaxation, CFZ in combination with PDE5 inhibitor: PDE5 inhibitor 30 nM, 10-minute pre-treatment before CFZ, CFZ alone 7.3×10^−8, vehicle alone 1.9×10^−8 (FIG. 5B); for prevention of CFZ induced vascular dysfunction in the presence of ACh: inhibitor 10 mins before 2.7 μM CFZ for 1 hour, 1 μM Phenylephrine precontraction (FIG. 8A, 9A)
Protocol: (§2) For assessment of the effect of CFZ on vascular relaxation, the pre-treated aortic rings were incubated with 1 μM PE for 20 minutes to induce contraction. For experiments involving sildenafil and tadalafil, a 10-minute pre-treatment with 30 nM of these smooth muscle relaxants was done prior to the incubation with CFZ. After reaching a stable contraction, ACh, sodium nitroprusside (SNP), nifedipine, riociguat, or cinaciguat was added to the chamber at an increasing concentration from 100 pM to 10 μM; each stepwise concentration increase was added after the response to the current concentration reached a plateau. The relaxation was continuously measured and plotted as percent relaxation normalized to the response with 1 μM PE.
(§3) Aortas were isolated from 8-10 week old CD® (Sprague Dawley) rats (from Charles River Laboratories) in an ice-cold, oxygenated (95% O2, 5% CO2) Krebs-Henseleit buffer. The aortas were then carefully cleaned to remove perivascular fat and cut into 2-mm rings that were mounted between two stainless steel wires in the myograph chamber containing 8 mL of Krebs-Henseleit buffer in 95% O2 and 5% CO2 at 37° C. Rings were stretch until a final stretch of 10 mN (Newton) was reached and incubated for 30 mins for equilibration.

rat aortic rings [2] = assay: Sodium nitroprusside-induced relaxation of phenylephrine-precontracted rat aortic rings; settings: for prevention of CFZ induced vascular dysfunction in the presence of SNP: inhibitor 10 mins before 2.7 μM CFZ for 1 hour, 1 μM Phenylephrine precontraction (FIG. 8B, 9B)
Protocol: as §2, §3

rat aortic rings [3] = assay: sGC activator (cinaciguat, riociguat)-induced relaxation of rat aortic rings; settings: Rattus norvegicus
Protocol: An isometric myograph (DMT 620M) was used for ex vivo measurement of vascular function. Eight-to 10-week old Sprague Dawley rats (purchased from Charles River Laboratories, Wilmington, MA) were first anesthetized with 3% isoflurane and then euthanized using inhaled desflurane. The aortas were isolated in an ice-cold, oxygenated (95% O2, 5% CO2) Krebs-Henseleit buffer (118.3 mM NaCl, 4.7 mM KCl, 1.2 mM MgSO4, 1.2 mM KH2PO4, 2.5 mM CaCl2, 25 mM NaHCO3, and 11.0 mM glucose; purchased from Sigma-Aldrich, St. Louis, MO). The thoracic aorta was carefully cleaned to remove perivascular fat and cut into 2-mm rings that were mounted between two stainless steel wires in the myograph chamber containing 8 mL of Krebs-Henseleit buffer in 95% O2 and 5% CO2 at 37° C. First, the rings were equilibrated in the chamber for 20 minutes, followed by a gradual increase of mechanical stretch until a final stretch of 10 mN (Newton) was reached. After an additional incubation with fresh buffer for 30 minutes, the rings were constricted with 8 mL of 80 mM KPSS (43 mM NaCl, 80 mM KCl, 2.5 mM CaCl2, 1.2 mM MgSO4, 1.2 mM KH2PO4, 25.0 mM NaHCO3, and 11.0 mM glucose) for 15 to 20 minutes, followed by 3 washes with the Krebs-Henseleit buffer until the force returned to the baseline stretch. The tension of the aortic rings was continuously measured with the Lab Chart 7 data acquisition system (ADInstruments, Colorado Springs, CO). […] The tension of the aortic rings was continuously measured with the Lab Chart 7 data acquisition system (ADInstruments, Colorado Springs, CO).
(§1) To assess the effect of CFZ on vascular contraction, the aortic rings were pre-treated with or without CFZ for 2 hours, followed by treatment with an increasing concentration of phenylephrine (PE) from 10 nM to 1 μM. […] The contraction was continuously measured and plotted as percent contraction normalized to the response of KPSS. […] The relaxation was continuously measured and plotted as percent relaxation normalized to the response with 1 μM PE.

rat aortic rings [4] = assay: Basal vascular tone of isolated rat aortic rings, isometric myograph; settings: 10 μM SB 203580 10 mins before 2.7 μM CFZ for 3 hour; LNAME+indomethacin (FIG. 10)
Protocol: An isometric myograph (DMT 620M) was used for ex vivo measurement of vascular function. Eight-to 10-week old Sprague Dawley rats (purchased from Charles River Laboratories, Wilmington, MA) were first anesthetized with 3% isoflurane and then euthanized using inhaled desflurane. The aortas were isolated in an ice-cold, oxygenated (95% O2, 5% CO2) Krebs-Henseleit buffer (118.3 mM NaCl, 4.7 mM KCl, 1.2 mM MgSO4, 1.2 mM KH2PO4, 2.5 mM CaCl2, 25 mM NaHCO3, and 11.0 mM glucose; purchased from Sigma-Aldrich, St. Louis, MO). The thoracic aorta was carefully cleaned to remove perivascular fat and cut into 2-mm rings that were mounted between two stainless steel wires in the myograph chamber containing 8 mL of Krebs-Henseleit buffer in 95% O2 and 5% CO2 at 37° C. First, the rings were equilibrated in the chamber for 20 minutes, followed by a gradual increase of mechanical stretch until a final stretch of 10 mN (Newton) was reached. After an additional incubation with fresh buffer for 30 minutes, the rings were constricted with 8 mL of 80 mM KPSS (43 mM NaCl, 80 mM KCl, 2.5 mM CaCl2, 1.2 mM MgSO4, 1.2 mM KH2PO4, 25.0 mM NaHCO3, and 11.0 mM glucose) for 15 to 20 minutes, followed by 3 washes with the Krebs-Henseleit buffer until the force returned to the baseline stretch. The tension of the aortic rings was continuously measured with the Lab Chart 7 data acquisition system (ADInstruments, Colorado Springs, CO). In Some of the experiments the aortic rings were pre-treated with 100 μM N(gamma)-nitro-L-arginine methyl ester (L-NAME; Sigma-Aldrich) and 10 μM indomethacin for 10 minutes prior to the pre-incubation with CFZ (Amgen Inc.) for 2 hours. After an additional incubation with fresh buffer for 30 minutes, the rings were constricted with 8 mL of 80 mM KPSS (43 mM NaCl, 80 mM KCl, 2.5 mM CaCl2, 1.2 mM MgSO4, 1.2 mM KH2PO4, 25.0 mM NaHCO3, and 11.0 mM glucose) for 15 to 20 minutes, followed by 3 washes with the Krebs-Henseleit buffer until the force returned to the baseline stretch. The tension of the aortic rings was continuously measured with the Lab Chart 7 data acquisition system (ADInstruments, Colorado Springs, CO).
To assess the effect of CFZ on vascular contraction, the aortic rings were pre-treated with or without CFZ for 2 hours, followed by treatment with an increasing concentration of phenylephrine (PE) from 10 nM to 1 μM. After the maximum contraction was achieved, the aortic rings were washed 3 times until the force returned to baseline. The contraction was continuously measured and plotted as percent contraction normalized to the response of KPSS. […] The relaxation was continuously measured and plotted as percent relaxation normalized to the response with 1 μM PE. […]

rat aortic rings [5] = assay: Angiotensin induced contraction (AUC) of rat aortic rings; settings: inhibitor 10 mins before 2.7 μM CFZ 1.5 hour; 30 nM Angiotensin (FIG. 11)
Protocol: Aortas were isolated from 8-10 week old CD® (Sprague Dawley) rats (from Charles River Laboratories) in an ice-cold, oxygenated (95% O2, 5% CO2) Krebs-Henseleit buffer. The aortas were then carefully cleaned to remove perivascular fat and cut into 2-mm rings that were mounted between two stainless steel wires in the myograph chamber containing 8 mL of Krebs-Henseleit buffer in 95% O2 and 5% CO2 at 37° C. Rings were stretch until a final stretch of 10 mN (Newton) was reached and incubated for 30 mins for equilibration. The rings were constricted with 8 mL of 80 mM KPSS for 15 minutes, followed by 3 washes with the Krebs-Henseleit buffer until the force returned to the baseline stretch. The aorta were then treated for one of the following experiments: • For protein expression studies the aortic rings were pre-treated with 100 μM N(gamma)-nitro-L-arginine methyl ester (L-NAME; Sigma-Aldrich) and 10 μM indomethacin for 10 minutes prior to the pre-incubation with CFZ (Amgen Inc.) for 1.5 hours.
Following the two incubation the rings were treated with either vehicle or 2.7 μM CFZ for further 1.5 hours before addition of 30 nM Angiotensin for 30 min. Angiotensin induced transient contraction which returned to the baseline in 30 mins. Area Under the Curve (AUC) of angiotensin induced contraction was measured.
Aortic rings were incubated for 10 min with 100 μM LNAME+10 μM indomethacin (endothelium derived relaxing agents blockers) for 10 mins followed by addition of 10 μM SB 203580 (p38 inhibitor) or PF3644022 (MAPKAPK-2 inhibitor) in some rings for 10 more mins as indicated. This was followed by addition of 2.7 μM CFZ in some rings as indicated for 1.5 hour. 30 nM Angiotensin was added for 30 min. Angiotensin induced transient contraction which returned to the baseline in 30 mins.

rat aortic rings [6] = assay: Nifedipine-induced relaxation of rat aortic rings; settings: increasing concentration of nifedipine (FIG. 2C)
Protocol: An isometric myograph (DMT 620M) was used for ex vivo measurement of vascular function. Eight-to 10-week old Sprague Dawley rats (purchased from Charles River Laboratories, Wilmington, MA) were first anesthetized with 3% isoflurane and then euthanized using inhaled desflurane. The aortas were isolated in an ice-cold, oxygenated (95% O2, 5% CO2) Krebs-Henseleit buffer (118.3 mM NaCl, 4.7 mM KCl, 1.2 mM MgSO4, 1.2 mM KH2PO4, 2.5 mM CaCl2, 25 mM NaHCO3, and 11.0 mM glucose; purchased from Sigma-Aldrich, St. Louis, MO). […] The tension of the aortic rings was continuously measured with the Lab Chart 7 data acquisition system (ADInstruments, Colorado Springs, CO). […]
as §1

EC50 for ACh-induced relaxation, CFZ in combination with PDE5 inhibitor (rat aortic rings [1])	SMILES	prevention of CFZ induced vascular dysfunction in the presence of ACh (rat aortic rings [1])	prevention of CFZ induced vascular dysfunction in the presence of SNP (rat aortic rings [2])	prevention of CFZ-increased angiotensin induced contraction (rat aortic rings [5])	also measured
2.8×10^−8	CCCc1nn(C)c2c(=O)[nH]c(-c3cc(S(=O)(=O)N4CCN(C)CC4)ccc3OCC)nc12 [sildenafil]	–	–	–	reversal of CFZ effect on VSM relaxation in the presence of ACh (rat aortic rings [1]; 30 nM pre-treatment 10 minutes before CFZ (FIG. 5B)): reversed the CFZ effect on VSM relaxation; reversal of CFZ effect on VSM relaxation in the presence of SNP (rat aortic rings [2]; 30 nM pre-treatment 10 minutes before CFZ (FIG. 5A)): reversed the CFZ effect on VSM relaxation
2.8×10^−8	CN1CC(=O)N2[C@H](c3ccc4c(c3)OCO4)c3[nH]c4ccccc4c3C[C@@H]2C1=O [tadalafil]	–	–	–	–
–	COC(=O)N(C)c1c(N)nc(-c2nn(Cc3ccccc3F)c3ncccc23)nc1N [riociguat]	–	–	–	pEC50 (rat aortic rings [3]; rings pre-incubated with CFZ (FIG. 4C), read-out: EC50 for relaxation, sGC activator with CFZ): 7.77; pEC50 (rat aortic rings [3]; without CFZ (FIG. 4C), read-out: EC50 for relaxation, sGC activator alone): 7.74
–	C[S+]([O-])c1ccc(-c2nc(-c3ccncc3)c(-c3ccc(F)cc3)[nH]2)cc1 (centres unmarked) [SB203580]	prevented CFZ induced vascular dysfunction	prevented CFZ induced vascular dysfunction	prevented	prevention of CFZ induced increase in vascular tone (rat aortic rings [4]): completely prevented
–	Cc1ccc(-c2ccc3c(ccc4sc5c(c43)NC[C@@H](C)NC5=O)n2)cn1 [PF3644022]	prevented CFZ induced vascular dysfunction	prevented CFZ induced vascular dysfunction	prevented	–
–	COC(=O)C1=C(C)NC(C)=C(C(=O)OC)C1c1ccccc1[N+](=O)[O-] [nifedipine]	–	–	–	plateau of vascular relaxation (rat aortic rings [6]): around 50%
